# Results taken from ChEMBL document CHEMBL4814046, “Inhibitory effects and mechanism of antifungal action of the natural cyclic depsipeptide, aureobasidin A against Cryptococcus neoformans” (Bioorg Med Chem Lett, 2021).
# Columns and labels:
# Assay type in all cases: functional
# Cryptococcus neoformans [1] = experiment: Fungicidal activity against Cryptococcus neoformans PFCC 93-589 by broth microdilution assay
# Cryptococcus neoformans [2] = experiment: Antifungal activity against Cryptococcus neoformans PFCC 93-589 by broth microdilution assay
# Cryptococcus neoformans [3] = experiment: Antifungal activity against Cryptococcus neoformans PFCC 93-589 assessed as increase in extracellular potassium leakage at 2 times MIC incubated up to 12 hrs measured per mg dry weight of cell by spectrophotometric method; conditions: time hrs <=12
# Cryptococcus neoformans [4] = experiment: Antifungal activity against Cryptococcus neoformans PFCC 93-589 assessed as half minimum inhibitory concentration by broth microdilution assay
smiles,measurement,setting,value
C[C@@H]1[C@H](O)[C@@H](C)/C=C/C=C/C=C/C=C/C=C/C=C/C=C/[C@H](O[C@@H]2O[C@H](C)[C@@H](O)[C@H](N)[C@@H]2O)C[C@@H]2O[C@](O)(C[C@@H](O)C[C@@H](O)[C@H](O)CC[C@@H](O)C[C@@H](O)CC(=O)O[C@H]1C)C[C@H](O)[C@H]2C(=O)O [AMPHOTERICIN B],MFC,Cryptococcus neoformans [1],1 µg/mL
same,MIC,Cryptococcus neoformans [2],0.25 µg/mL
same,Activity,Cryptococcus neoformans [3],3.56 mM
same,MIC,Cryptococcus neoformans [4],0.125 µg/mL
